Reference: US9446017B2, “Compositions and methods for treating herpes simplex virus” (Augusta University Research Institute, Inc., priority 2005, dated 2016)
“And” between values parts separate entries of the source, which are not always exact repeats. Equal entries are not always repeated. “Also recorded” adds a separate entry of the source.

Assays:
HSV = HSV plaque assays using Vero cells with and without EGCG (Example 1); format: cell-based; settings: 100 μM applied
Experimental: HSV plaque assays using Vero cells were conducted with and without the addition of epigallocatechin gallate (EGCG).

Vero cells = test: Cell viability assay, trypan blue and hemocytometer direct cell count; settings: for Dead cells / Live cells: FIG. 1 axis Vero cells/ml
Experimental: Vero cells were plated in 6 well plates and after a period of 24 hours different concentrations of EGCG or EGCG-ester (12.5, 25, 50, 75, 100 μM) were added to each well, respectively. After one hour, the polyphenols were aspirated and the cells were washed with PBS. DMEM media was put back into each well and cells were incubated for 24 hrs. Cells were then counted using a hemocytometer and trypan blue which stains the dead cells blue and leaves the live cells white.
The cell viability was determined by using trypan blue and hemacytometer direct cell count to detect the effect of EGCG-ester on Vero cells.

HSV1 [1] = test: PCR-based assay of viral DNA, band intensity on agarose gel; format: cell-based; settings: for DNA band intensity, primers for glycoprotein D, GFP and VP11/12: HSV1 treated with 75 μM
Source text: Nine sets of primers were designed to prime different regions of the HSV1 genome based on published sequences. Two sets of primers were designed to target HSV I glycoprotein D. These include 5′-[…]-3′ (SEQ ID NO:2) for the forward and 5′-[…]-3′ (SEQ ID NO:3) for the reverse. The second set includes 5′-[…]-3′ (SEQ ID NO:4) for the forward and 5′[…]-3′ (SEQ ID NO:5) for the reverse. Next, two sets of primers were designed to target HSV1 glycoprotein B. They are the following: 5′[…]-3′ (SEQ ID NO:6) for the forward and 5′-[…]-3′ (SEQ ID NO:7) for the reverse. The second set includes 5′-[…]-3′(SEQ ID NO:8) for the forward and 5′-[…]-3′ (SEQ ID NO:9) for the reverse. A third set of primers had been previously designed and published on the book Herpes Simplex Virus Protocols by S. Moira Brown and Alasdair R. MacLean. The set includes 5′[…]-3′ (SEQ ID NO:10) for the forward and 5′-[…]-3′ (SEQ ID NO:11) for the reverse. A set of primers was designed to target the Green Fluorescent protein attached to the UL46 gene of HSV 1. It includes 5′-[…]-3′ (SEQ ID NO:14) for the forward and 5′-[…]-3′ (SEQ ID NO:15) for the reverse. A second set of primers designed for the GFP had been previously designed 42. It includes 5′-[…]-3′ (SEQ ID NO:12) for the forward and 5′-[…]-3′ (SEQ ID NO:13) for the reverse. Finally, two sets of primers were designed to target HSV1 tegument protein VP11/12 that corresponds to the UL46 gene. They are the following: 5′-[…]-3′ (SEQ ID NO:16) for the forward and 5′-[…]-3′ (SEQ ID NO:17) for the reverse. The second set includes 5′-[…]-3′ (SEQ ID NO:18) for the forward and 5′[…]-3′ (SEQ ID NO:19) for the reverse. The reaction mix included 1 μL of the extracted DNA, 1 μL of forward and 1 μL of reverse primers, 12.5 μL of Master Mix, and 9.5 μL of diH2O. The mix was put into PCR tubes and placed into a Labnet MultiGene II thermal cycler (Labnet International, Edison N.J.). The reaction profile was initial denaturation at 95° C. for 2 minutes followed by cycles of denaturation at 95° C. for 30 seconds, annealing at 60° C. for 1 minute and extension at 72° C. for 30 seconds. The last step included a final extension period at 72° C. for 10 minutes. […]
Polymerase chain reaction products were analyzed and visualized on 1% agarose gels. […] The gel was then analyzed under UV light using Kodak Image Station 440 CF (Perkin Elmer Life Sciences, Waltham, Mass.).
Cells were grown on 60 mm plates and allowed to reach confluency. […] DNA concentration was then measured by using a Nanodrop Specrophotometer.
DNA extracted from HSV1/Vero cells and EGCG-ester HSV1/Vero cells was purified and isolated and the amount and purity was determined by Nanodrop spectrophotometer ND1000. […]

HSV1 [2] = test: Real time PCR of HSV1 glycoprotein D; format: cell-based; settings: for fold difference in the amount of glycoprotein D DNA vs HSV1/Vero: Ct based; for inhibits HSV1: FIG. 10
Experimental: A set of primer that primes HSV1 glycoprotein D was designed for use in Real time polymerase chain reaction. This set includes 5″-[…]-3′ (SEQ ID NO:20) for the forward and 5′[…]-3′ (SEQ ID NO:21) for the reverse. Each tube (except the negative controls-no DNA) contained […] of Fast SYBR green master mix (ABI Fast SYBR Green Master Mix), 1 μL of forward primer, 1 μL of reverse primer, […] of genomic DNA and 6 μL of […]. The samples were run on an ABI StepOnePlus Real-Time PCR System. The Run methods were: a holding stage at 95° C. for 5 minutes followed by 40 cycles of denaturation at 95° C. for 1 minute, annealing at 60° C. for 1 minute and extension at 72° C. for 30 seconds. Next, the melting curve stage included 95° C. for 15 seconds, followed by 60° C. for 1 minute, and 95° C. for 15 seconds.
Cells were grown on 60 mm plates and allowed to reach confluency. Cells were then infected with HSV I treated and HSV1 non-treated for 1 hour at 37° C. and 5% CO2. After absorption time, cells were washed with PBS and media was added to the plates. After 12 hours, cells were trypsinized and DNA was extracted using the DNeasy Blood and Tissue Handbook (Qiagen 2006). DNA concentration was then measured by using a Nanodrop Specrophotometer.
The process of real time PCR works by collecting fluorescence data at the end of each cycle of the reaction. The SYBR green dye used in the experiment binds to the double stranded PCR product causing the PCR product to fluoresce. As the reaction continues the instrument recalls the threshold for each sample. The threshold cycle (Ct) is the critical cycle at which the first significance increase in fluorescence is detected. Once the PCR cycles ended, the data were collected and the Ct values for each of the samples were analyzed and the relative quantity (RQ) of fluorescence was reported. The standard for comparing Ct values is that a difference in one Ct is equivalent to a two-fold difference in the amount of DNA. […] of DNA was used for all samples; cells only, HSV1/Vero, and EGCG-ester HSV1/Vero.

[3] = Stability of the polyphenol (statements, no method); format: physicochemical; settings: vaginal pH
[4] = 100 μM, Vero cells, replicate counts

## O=C(O[C@@H]1Cc2c(O)cc(O)cc2O[C@@H]1c1cc(O)c(O)c(O)c1)c1cc(O)c(O)c(O)c1 [EGCG, (−)-epigallocatechin-3-gallate, reference compound]
HSV
  viral plaques: no viral plaques were observed
Vero cells; [4]
  Cells: 167 and 292 and 347
  Cells dead: 119 and 134 and 184
HSV1 [1]
  DNA band intensity, primers for glycoprotein D, GFP and VP11/12: decreased
HSV1 [2]
  fold difference in the amount of glycoprotein D DNA vs HSV1/Vero: 32 fold
  inhibits HSV1: 95%

## CCCCCCCCCCCCCCCC(=O)Oc1c(O)cc([C@H]2Oc3cc(O)cc(O)c3C[C@H]2OC(=O)c2cc(O)c(O)c(O)c2)cc1O [EGCG-ester]
Vero cells; 12.5 μM
  % of death: 10%
  Dead cells: 2.7E+06
  Live cells: 2.56E+07
Vero cells; 25 μM
  % of death: 10%
  Dead cells: 2.95E+06
  Live cells: 2.72E+07
Vero cells; 50 μM
  % of death: 10%
  Dead cells: 2.90E+06
  Live cells: 2.89E+07
Vero cells; 75 μM
  % of death: 10%
  Dead cells: 1.70E+06
  Live cells: 2.71E+07
Vero cells; Vero cells
  maximum nontoxic concentration: 75 µM
Vero cells; increasing concentration, compared to control
  percentage of cell death: not changed; also recorded: did not change much
HSV1 [1]; 75 μM, control average 525.29
  band intensity of glycoprotein D PCR product, average: 400.05
HSV1 [1]; 75 μM, control readings 445.92, 588.24, 541.73
  band intensity of glycoprotein D PCR product (single reading): 353.87 and 438.47 and 407.82
HSV1 [1]
  DNA band intensity, primers for glycoprotein D, GFP and VP11/12: further decreased
HSV1 [2]
  fold difference in the amount of glycoprotein D DNA vs HSV1/Vero: 256 fold
  inhibits HSV1: 99.46%
[3]
  stability: stable at vaginal pH
